Laboratory results from patent publication US20030064954A1, “Cationic amphiphilic 1,4-dihydropyridine derivatives useful for delivery of nucleotide containing compounds” (priority 2000, published 2003).
Where “and” joins values, the source holds several entries; their conditions need not be identical. Equal values may be shown once.

What was measured:
CVI-P cells = assay: Cytotoxicity of amphiphile/DNA complexes, percentage of survived cells
[1] = test system: CV-1P (African monkey green kidney fibroblasts cells); assay: In vitro transfection of plasmid DNA, β-galactosidase activity per well; type: cell-based; conditions: CVI-P; for transfection, result in words: entry spans the charge ratios 8-0.5
Protocol: Transfer of plasmid DNA by various compounds was investigated by using CV-1P (African monkey green kidney fibroblasts cells) and D407 (human retinal pigment epithelial) cells.
The cells were cultured in Dulbecco's modified Eagle's medium (DMEM, Gibco), supplemented with 10% fetal bovine serum (FBS), penicillin/streptomycin (100 units/ml and 100 μg/ml respectively) and 2 mM L-glutamine for D 407 cell line. Cell cultures were maintained at 37° C. in a 7% CO2/air incubator. The cells were collected, counted and seeded in growth medium (100 μl) into 96-well culture plate, 20 000 cells per well. One day later the medium was replaced with fresh medium without serum (150 μl)
In the case of confluent CV1-P cells the medium (with of without serum) was changed on fourth day of cell growth before the transfection.
The complexes at different derivative/DNA charge ratios for transfection procedure were prepared just before use in 50 mM MES—50 mM HEPES—75 mM NaCl buffer, pH 7.2 in separate 96 well plates. One hour after changing the serum-free medium with 10% serum the complexes were added to the cells at […]. Dose of DNA per well was 0.6 μg. After 5 h the complexes were removed, the cells were washed with PBS, and the normal growth medium was added. After 45 h of incubation at 37° C. the cells were lysed with 2% Triton X 100, twice deep frozen and the β-galactosidase activity in each well was determined spectrofotometrically with ELx800 automated microplate reader (Bio-Tex Instruments Inc., Winooski, Vt. USA) by monitoring the hydrolysis of o-nitrophenylgalactopyranoside (oNPG) at 405 nm. Purified β-galactosidase from E.coli was used to construct a standard curve and to calculate […] activity in the transfected cells. […] Transfection efficiencies are given as percentage in comparison to transfection efficiency of Lipofectin^R.

D 407 cells = assay: Cytotoxicity of amphiphile/DNA complexes, percentage of survived cells; type: cell-based, human; set-up: concentration or dose not given beside the values
plasmid DNA = assay: DNA condensation/complexation, EtBr displacement assay; type: binding
Protocol: The ability of the cationic amphiphiles to condense DNA was assessed with an EtBr displacement assay. Briefly, in 96 well plates plasmid DNA (0.6 μg per well) was reacted with 0.002% EtBr in 20 mM HEPES—150 mM NaCl buffer, pH 7.4 and fluorescence intensity was measured at 530 nm (excitation) and 590 nm (emission). Intercalation of EtBr molecules between the base pairs of the DNA double helix results in increased fluorescence signal. Immediately thereafter, the cationic liposomes were added to form complexes at different +/−charge ratios and the quenching of fluorescence intensity of EtBr was monitored. Condensation of DNA upon complexation with liposomes results in the displacement of EtBr from DNA and in decreased fluorescence signal. Fluorescence was measured using FL 500 microplate fluorescence reader (Bio-Tek Instruments Inc., Winooski, Vt., USA).
The values are expressed as percentage of the maximum fluorescence signal when EtBr bound to DNA in the absence of an amphiphile. Each data point is from at least triplicate experiment ±S.D.

[2] = test system: D407 (human retinal pigment epithelial) cells; assay: In vitro transfection of plasmid DNA, β-galactosidase activity per well; type: cell-based; conditions: D 407
Protocol: The complexes at different derivative/DNA charge ratios for transfection procedure were prepared just before use in 50 mM MES—50 mM HEPES—75 mM NaCl buffer, pH 7.2 in separate 96 well plates. One hour after changing the serum-free medium with 10% serum the complexes were added to the cells at 370C. Dose of DNA per well was 0.6 μg. After 5 h the complexes were removed, the cells were washed with PBS, and the normal growth medium was added. After 45 h of incubation at 37° C. the cells were lysed with 2% Triton X 100, twice deep frozen and the β-galactosidase activity in each well was determined spectrofotometrically with ELx800 automated microplate reader (Bio-Tex Instruments Inc., Winooski, Vt. USA) by monitoring the hydrolysis of o-nitrophenylgalactopyranoside (oNPG) at 405 nm. Purified β-galactosidase from E.coli was used to construct a standard curve and to calculate 9-galactosidase activity in the transfected cells. […] Transfection efficiencies are given as percentage in comparison to transfection efficiency of Lipofectin^R.

[3] = amphiphile/DNA +/− charge ratio 0.5
[4] = amphiphile/DNA +/− charge ratio 1
[5] = amphiphile/DNA +/− charge ratio 2
[6] = amphiphile/DNA +/− charge ratio 4
[7] = amphiphile/DNA +/− charge ratio 8

CCCCCCCC/C=C\CCCCCCCC(=O)OCC(C[N+](C)(C)C)OC(=O)CCCCCCC/C=C\CCCCCCCC.[Cl-] (centres unmarked) [DOTAP, N-(1-(2,3-dioleoyloxy)propyl)-N,N,N-trimethylammoniummethyl-sulfate, reference compound]
cytotoxicity as a percentage of survived cells (CVI-P cells; [3]): 92,45% | cytotoxicity as a percentage of survived cells (CVI-P cells; [4]): 92,09% | cytotoxicity as a percentage of survived cells (CVI-P cells; [5]): 91,87% | cytotoxicity as a percentage of survived cells (CVI-P cells; [6]): 97,89% | cytotoxicity as a percentage of survived cells (CVI-P cells; [7]): 102,3% | transfection efficiency [1, 3]: 0,61 β-galactosidase units per well | transfection efficiency [1, 4]: 0,9 β-galactosidase units per well | transfection efficiency [1, 5]: 15,58 β-galactosidase units per well | transfection efficiency [1, 6]: 10,5 β-galactosidase units per well | transfection efficiency [1, 7]: 3,19 β-galactosidase units per well | cytotoxicity as a percentage of survived cells (D 407 cells; [3]): 85,08% | cytotoxicity as a percentage of survived cells (D 407 cells; [4]): 87,48% | cytotoxicity as a percentage of survived cells (D 407 cells; [5]): 80,32% | cytotoxicity as a percentage of survived cells (D 407 cells; [6]): 81,34% | cytotoxicity as a percentage of survived cells (D 407 cells; [7]): 76,11% | complexation, percentage of the maximum fluorescence signal when EtBr bound to DNA in the absence of an amphiphile (plasmid DNA; [3]): 86,72% | complexation, percentage of the maximum fluorescence signal when EtBr bound to DNA in the absence of an amphiphile (plasmid DNA; [4]): 76,11% | complexation, percentage of the maximum fluorescence signal when EtBr bound to DNA in the absence of an amphiphile (plasmid DNA; [5]): 69,15% | complexation, percentage of the maximum fluorescence signal when EtBr bound to DNA in the absence of an amphiphile (plasmid DNA; [7]): 65,47% | transfection efficiency [2, 3]: 0,7 β-galactosidase units per well | transfection efficiency [2, 4]: 4,8 β-galactosidase units per well | transfection efficiency [2, 5]: 25,05 β-galactosidase units per well | transfection efficiency [2, 6]: 19,6 β-galactosidase units per well | transfection efficiency [2, 7]: 4,92 β-galactosidase units per well

CCCCCCCCCCCCCCCCOCCCOC(=O)C1=C(C)NC(C)=C(C(=O)OCCCOCCCCCCCCCCCCCCCC)C1c1ccc[n+](C)c1.[I-] [II]
cytotoxicity as a percentage of survived cells (CVI-P cells; [3]): 111,42% | cytotoxicity as a percentage of survived cells (CVI-P cells; [4]): 101,24% | cytotoxicity as a percentage of survived cells (CVI-P cells; [5]): 102,9% | cytotoxicity as a percentage of survived cells (CVI-P cells; [6]): 79,08% | cytotoxicity as a percentage of survived cells (CVI-P cells; [7]): 99,23% | transfection, result in words [1]: No signal | complexation, percentage of the maximum fluorescence signal when EtBr bound to DNA in the absence of an amphiphile (plasmid DNA; [3]): 92,2% | complexation, percentage of the maximum fluorescence signal when EtBr bound to DNA in the absence of an amphiphile (plasmid DNA; [4]): 85,6% | complexation, percentage of the maximum fluorescence signal when EtBr bound to DNA in the absence of an amphiphile (plasmid DNA; [5]): 77,2% | complexation, percentage of the maximum fluorescence signal when EtBr bound to DNA in the absence of an amphiphile (plasmid DNA; [6]): 74,8% | complexation, percentage of the maximum fluorescence signal when EtBr bound to DNA in the absence of an amphiphile (plasmid DNA; [7]): 72,4%

CCCCCCCCCOC(=O)C1=C(C)NC(C)=C(C(=O)OCCCCCCCCC)C1c1ccc[n+](C)c1.I.[I-] [IV, 1′,4′-Dihydro-1,2′,6′-trimethyl-3′,5′-bis(nonyloxycarbonyl)-3,4′-bipyridinium iodide]
transfection, result in words [1]: No signal

CCCCCCCCCCCCCCCC(=O)OCC(COC(=O)C1=C(C)NC(C)=C(C(=O)OCC(COC(=O)CCCCCCCCCCCCCCC)OC(=O)CCCCCCCCCCCCCCC)C1c1ccc[n+](C)c1)OC(=O)CCCCCCCCCCCCCCC.I.[I-] (centres unmarked) [IX, 3′,5′-Bis [(2,3-dipalmitoyloxypropoxy)carbonyl]-1′,4′-dihydro-1,2′,6′-trimethyl-3,4′-bipyridinium iodide]
cytotoxicity as a percentage of survived cells (CVI-P cells; [3]): 83,11% and 90,48% | cytotoxicity as a percentage of survived cells (CVI-P cells; [4]): 84,63% and 107,13% | cytotoxicity as a percentage of survived cells (CVI-P cells; [5]): 97,34% and 120,34% | cytotoxicity as a percentage of survived cells (CVI-P cells; [6]): 106,62% and 117,42% | cytotoxicity as a percentage of survived cells (CVI-P cells; [7]): 100,65% and 124,54% | transfection, result in words [1]: No signal | complexation, percentage of the maximum fluorescence signal when EtBr bound to DNA in the absence of an amphiphile (plasmid DNA; [3]): 101,6% and 97,8% | complexation, percentage of the maximum fluorescence signal when EtBr bound to DNA in the absence of an amphiphile (plasmid DNA; [4]): 101,6% and 97,5% | complexation, percentage of the maximum fluorescence signal when EtBr bound to DNA in the absence of an amphiphile (plasmid DNA; [5]): 103,3% and 97,5% | complexation, percentage of the maximum fluorescence signal when EtBr bound to DNA in the absence of an amphiphile (plasmid DNA; [6]): 97,8% and 98,4% | complexation, percentage of the maximum fluorescence signal when EtBr bound to DNA in the absence of an amphiphile (plasmid DNA; [7]): 98,5% and 106,1%

Br.CCCCCCCCCCCCCCOC(=O)C1=C(C)NC(C)=C(C(=O)OCCCCCCCCCCCCCC)C1c1ccc[n+](CCCC)c1.[Br-] [XXI, 1-Butyl-1′,4′-dihydro-2′,6′-dimethyl-3′,5′-bis(tetradecyloxycarbonyl)-3,4′-bipyridinium bromide]
transfection, result in words [1]: No signal

CCCCCCCCCCOC(=O)C1=C(C[n+]2ccccc2)NC(C[n+]2ccccc2)=C(C(=O)OCCCCCCCCCC)C1c1ccccc1.[Br-].[Br-] [XXII, 1,1′-{[3,5-Bis(decyloxycarbonyl)-1,4-dihydro-4-phenylpyridine-2,6-diyl]dimethylene}bispyridinium dibromide]
cytotoxicity as a percentage of survived cells (CVI-P cells; [3]): 95,71% | cytotoxicity as a percentage of survived cells (CVI-P cells; [4]): 87,2% | cytotoxicity as a percentage of survived cells (CVI-P cells; [5]): 84,01% | cytotoxicity as a percentage of survived cells (CVI-P cells; [6]): 78,2% | cytotoxicity as a percentage of survived cells (CVI-P cells; [7]): 46,74% | transfection, result in words [1]: No signal | complexation, percentage of the maximum fluorescence signal when EtBr bound to DNA in the absence of an amphiphile (plasmid DNA; [3]): 77,8% | complexation, percentage of the maximum fluorescence signal when EtBr bound to DNA in the absence of an amphiphile (plasmid DNA; [4]): 58,8% | complexation, percentage of the maximum fluorescence signal when EtBr bound to DNA in the absence of an amphiphile (plasmid DNA; [5]): 48,1% | complexation, percentage of the maximum fluorescence signal when EtBr bound to DNA in the absence of an amphiphile (plasmid DNA; [6]): 45,1% | complexation, percentage of the maximum fluorescence signal when EtBr bound to DNA in the absence of an amphiphile (plasmid DNA; [7]): 43,5%

CCCCCCCCC=CCCCCCCCCOC(=O)C1=C(C[n+]2ccccc2)NC(C[n+]2ccccc2)=C(C(=O)OCCCCCCCCC=CCCCCCCCC)C1c1ccccc1.[Br-].[Br-] (centres unmarked) [XXVI, 1,1′-[(3,5-Dioctadec-9′-enyloxycarbonyl-4-phenyl-1,4-dihydropyridine-2,6-diyl)dimethylene]bispyridinium dibromide]
transfection, result in words [1]: No signal

CCCCCCCCCCOC(=O)C1=C(C[N+](C)(C)CCCCCCCC)NC(C[N+](C)(C)CCCCCCCC)=C(C(=O)OCCCCCCCCCC)C1c1ccccc1.[Br-].[Br-] [XXVII, N,N′-{[3,5-Bis(decyloxycarbonyl)-1,4-dihydro-4-phenyl-pyridine-2,6-diyl]dimethylene}-N,N,N′,N′-tetramethyl-N,N′-dioctyldiammonium dibromide]
cytotoxicity as a percentage of survived cells (CVI-P cells; [3]): 105,03% | cytotoxicity as a percentage of survived cells (CVI-P cells; [4]): 98,37% | cytotoxicity as a percentage of survived cells (CVI-P cells; [5]): 88,41% | cytotoxicity as a percentage of survived cells (CVI-P cells; [6]): 24,62% | cytotoxicity as a percentage of survived cells (CVI-P cells; [7]): 13,46% | transfection efficiency [1, 3]: 0,24 β-galactosidase units per well | transfection efficiency [1, 4]: 1,63 β-galactosidase units per well | transfection efficiency [1, 5]: 36,55 β-galactosidase units per well | transfection efficiency [1, 6]: 21,46 β-galactosidase units per well | transfection efficiency [1, 7]: 3,14 β-galactosidase units per well | DNA condensing capacity (mark in Table 2) (plasmid DNA): 23a/XXVII*
